Patent publication US20230141603A1, “BENZODIAZEPINE DERIVATIVES AS GABA A GAMMA1 PAM” (Hoffmann-La Roche Inc., priority 2021, published 2023)

Assays:
h-GABAA α1β3γ2 = target: T1, h-GABAA α1β3γ2 (Homo sapiens, UniProt P14867+P18507); assay: Radioligand binding assay, [3H]Flumazenil competition, HEK293F membranes; details: for γ2/γ1 Selectivity Ratio: Ki α1β3γ2 (nM)/Ki α2β2γ1 (nM); for LogSel: Log[Ki α1β3γ2 (nM)/Ki α2β2γ1 (nM)]
T1 construct: expressed in transfected cells; host or cells: HEK293F cells, membranes
Summary of the method: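 [3H]Flumazenil competition binding on membranes from HEK293F cells transiently expressing human α1β3γ2 receptors. Incubation to equilibrium for 1 h at 4 °C, then filtration and scintillation counting. Ki is the mean of two determinations.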

h-GABAA α2β2γ1 = target: T2, h-GABAA α2β2γ1 (Homo sapiens, UniProt P47869+Q8N1C3); assay: Two-electrode voltage clamp electrophysiology in Xenopus oocytes, modulation of GABA EC20 current; type: cell-based; parameters: host or cells: Xenopus laevis oocytes, RNA micro-injection; details: for Efficacy (GABA)% / Fold increase h-GABA-A α2β2γ1 oocyte @ 30-fold Ki: Table 2; for Efficacy (GABA)%: % modulation of GABA EC20 = 100*(Fold increase−1), compound at approx. 30-fold Ki; for Fold increase h-GABA-A α2β2γ1 oocyte @ 30-fold Ki: compound at approx. 30-fold its Ki α2β2γ1, GABA EC20, Xenopus oocytes
T2 sequence (P47869 29-451): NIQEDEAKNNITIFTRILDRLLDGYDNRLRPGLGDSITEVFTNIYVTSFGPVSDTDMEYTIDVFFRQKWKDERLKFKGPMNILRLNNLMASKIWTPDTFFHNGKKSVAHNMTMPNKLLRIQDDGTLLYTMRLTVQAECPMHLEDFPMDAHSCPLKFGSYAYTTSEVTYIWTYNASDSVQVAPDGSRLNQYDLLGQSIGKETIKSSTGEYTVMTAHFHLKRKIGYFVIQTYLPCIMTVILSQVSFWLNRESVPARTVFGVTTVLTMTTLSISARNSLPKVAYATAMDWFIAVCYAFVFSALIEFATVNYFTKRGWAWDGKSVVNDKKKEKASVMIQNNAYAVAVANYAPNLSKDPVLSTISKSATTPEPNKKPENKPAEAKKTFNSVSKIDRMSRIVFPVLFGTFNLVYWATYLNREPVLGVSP
T2 sequence (P47870 25-512 partner limits assumed): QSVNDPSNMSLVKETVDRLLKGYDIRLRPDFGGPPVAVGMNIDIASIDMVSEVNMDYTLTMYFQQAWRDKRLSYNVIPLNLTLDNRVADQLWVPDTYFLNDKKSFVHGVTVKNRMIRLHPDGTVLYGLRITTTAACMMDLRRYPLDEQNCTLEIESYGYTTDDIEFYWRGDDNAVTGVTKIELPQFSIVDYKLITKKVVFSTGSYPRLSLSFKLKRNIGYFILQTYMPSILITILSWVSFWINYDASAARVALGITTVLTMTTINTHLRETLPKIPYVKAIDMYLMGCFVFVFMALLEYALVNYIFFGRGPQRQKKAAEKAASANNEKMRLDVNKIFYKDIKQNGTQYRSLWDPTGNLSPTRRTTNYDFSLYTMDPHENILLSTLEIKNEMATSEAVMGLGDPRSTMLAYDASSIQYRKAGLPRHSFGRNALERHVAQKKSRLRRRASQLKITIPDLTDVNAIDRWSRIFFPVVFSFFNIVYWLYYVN
T2 sequence (Q8N1C3 36-465): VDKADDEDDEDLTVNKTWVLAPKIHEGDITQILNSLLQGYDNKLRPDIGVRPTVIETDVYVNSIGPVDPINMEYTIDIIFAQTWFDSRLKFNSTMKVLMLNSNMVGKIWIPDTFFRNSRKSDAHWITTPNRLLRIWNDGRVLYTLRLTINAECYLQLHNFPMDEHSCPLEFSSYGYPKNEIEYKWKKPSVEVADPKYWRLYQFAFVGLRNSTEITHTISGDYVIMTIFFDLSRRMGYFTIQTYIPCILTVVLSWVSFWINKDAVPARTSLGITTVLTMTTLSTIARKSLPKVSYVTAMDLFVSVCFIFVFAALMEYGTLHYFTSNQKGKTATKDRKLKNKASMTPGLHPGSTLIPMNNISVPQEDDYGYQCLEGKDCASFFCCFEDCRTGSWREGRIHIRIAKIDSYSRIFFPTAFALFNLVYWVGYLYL
Summary of the method: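 Oocytes injected with receptor subunit mRNA were recorded 3–5 days later by two-electrode voltage clamp at −80 mV, room temperature, pH 7.4. Compound was applied during a second GABA EC20 pulse, with at least 3 oocytes per concentration. Efficacy is the ratio-trace extremum, expressed as % modulation of GABA EC20.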

In the case of `COc1ccc2c(c1Cl)C(c1c(F)cccc1F)=NCc1nnc(-c3ccncn3)n1-2` [Example 61, 7-chloro-6-(2,6-difluorophenyl)-8-methoxy-1-pyrimidin-4-yl-4H-[1,2,4]triazolo[4,3-a][1,4]benzodiazepine], the Ki (h-GABAA α1β3γ2) is reported as 2140 nM, the “γ2/γ1 Selectivity Ratio” value (h-GABAA α1β3γ2; Table 1) is reported as 27.6 and the LogSel (h-GABAA α1β3γ2; Table 1) is reported as 1.44. For the same compound, the “Efficacy (GABA)%” value (h-GABAA α2β2γ1) was 61% and the “Fold increase h-GABA-A α2β2γ1 oocyte @ 30-fold Ki” value (h-GABAA α2β2γ1) was 1.61.

`COc1ccc2c(c1Cl)C(c1c(F)cccc1F)=NCc1nnc(-c3cccnc3)n1-2` [Example 62, 7-chloro-6-(2,6-difluorophenyl)-8-methoxy-1-(3-pyridyl)-4H-[1,2,4]triazolo[4,3-a][1,4]benzodiazepine] was tested, and the Ki (h-GABAA α1β3γ2) was 2150 nM, the “γ2/γ1 Selectivity Ratio” value (h-GABAA α1β3γ2; Table 1) was 38.9 and the LogSel (h-GABAA α1β3γ2; Table 1) was 1.59. The “Efficacy (GABA)%” value (h-GABAA α2β2γ1) was 63% and the “Fold increase h-GABA-A α2β2γ1 oocyte @ 30-fold Ki” value (h-GABAA α2β2γ1) was 1.63.

`Fc1cccnc1C1=NCc2nnc(C3CC3)n2-c2ccc(Cl)c(Cl)c21` [Example 65, 7,8-dichloro-1-cyclopropyl-6-(3-fluoro-2-pyridyl)-4H-[1,2,4]triazolo[4,3-a][1,4]benzodiazepine] was tested, and the Ki (h-GABAA α1β3γ2) was 1560 nM, the “γ2/γ1 Selectivity Ratio” value (h-GABAA α1β3γ2; Table 1) was 24.0 and the LogSel (h-GABAA α1β3γ2; Table 1) was 1.38. The “Efficacy (GABA)%” value (h-GABAA α2β2γ1) was 114% and the “Fold increase h-GABA-A α2β2γ1 oocyte @ 30-fold Ki” value (h-GABAA α2β2γ1) was 2.14.

With `Fc1cccnc1C1=NCc2nnc(-c3ccncn3)n2-c2ccc(C(F)(F)F)c(Cl)c21` [Example 69, 7-chloro-6-(3-fluoro-2-pyridyl)-1-pyrimidin-4-yl-8-(trifluoromethyl)-4H-[1,2,4]triazolo[4,3-a][1,4]benzodiazepine] the Ki (h-GABAA α1β3γ2) was 10600 nM, the “γ2/γ1 Selectivity Ratio” value (h-GABAA α1β3γ2; Table 1) was 166.3 and the LogSel (h-GABAA α1β3γ2; Table 1) was 2.22. For the same compound, the “Efficacy (GABA)%” value (h-GABAA α2β2γ1) was 136% and the “Fold increase h-GABA-A α2β2γ1 oocyte @ 30-fold Ki” value (h-GABAA α2β2γ1) was 2.36.

In the case of `Cn1cc(-c2nnc3n2-c2ccc(C(F)(F)F)c(Cl)c2C(c2ncccc2F)=NC3)cn1` [Example 70, 7-chloro-6-(3-fluoro-2-pyridyl)-1-(1-methylpyrazol-4-yl)-8-(trifluoromethyl)-4H-[1,2,4]triazolo[4,3-a][1,4]benzodiazepine], the Ki (h-GABAA α1β3γ2) is reported as 5980 nM, the “γ2/γ1 Selectivity Ratio” value (h-GABAA α1β3γ2; Table 1) is reported as 144.5 and the LogSel (h-GABAA α1β3γ2; Table 1) is reported as 2.16. For the same compound, the “Efficacy (GABA)%” value (h-GABAA α2β2γ1) was 78% and the “Fold increase h-GABA-A α2β2γ1 oocyte @ 30-fold Ki” value (h-GABAA α2β2γ1) was 1.78.

With `Cc1nnc2n1-c1ccc(Cl)c(Cl)c1C(c1ncccc1F)=NC2` [Example 71, 7,8-dichloro-6-(3-fluoro-2-pyridyl)-1-methyl-4H-[1,2,4]triazolo[4,3-a][1,4]benzodiazepine] the Ki (h-GABAA α1β3γ2) was 1080 nM, the “γ2/γ1 Selectivity Ratio” value (h-GABAA α1β3γ2; Table 1) was 28.7 and the LogSel (h-GABAA α1β3γ2; Table 1) was 1.46. For the same compound, the “Efficacy (GABA)%” value (h-GABAA α2β2γ1) was 99% and the “Fold increase h-GABA-A α2β2γ1 oocyte @ 30-fold Ki” value (h-GABAA α2β2γ1) was 1.99.

In the case of `Fc1cccnc1C1=NCc2nnc(-c3cccnn3)n2-c2ccc(C(F)(F)F)c(Cl)c21` [Example 72, 7-chloro-6-(3-fluoro-2-pyridyl)-1-pyridazin-3-yl-8-(trifluoromethyl)-4H-[1,2,4]triazolo[4,3-a][1,4]benzodiazepine], the Ki (h-GABAA α1β3γ2) is reported as 10300 nM, the “γ2/γ1 Selectivity Ratio” value (h-GABAA α1β3γ2; Table 1) is reported as 342.1 and the LogSel (h-GABAA α1β3γ2; Table 1) is reported as 2.53. The “Efficacy (GABA)%” value (h-GABAA α2β2γ1) was 630% and the “Fold increase h-GABA-A α2β2γ1 oocyte @ 30-fold Ki” value (h-GABAA α2β2γ1) was 7.30.

In the case of `Fc1cccnc1C1=NCc2nnc(C3CC3)n2-c2ccc(Br)c(Cl)c21` [Example 77, 8-bromo-7-chloro-1-cyclopropyl-6-(3-fluoro-2-pyridyl)-4H-[1,2,4]triazolo[4,3-a][1,4]benzodiazepine], the Ki (h-GABAA α1β3γ2) is reported as 716 nM, the “γ2/γ1 Selectivity Ratio” value (h-GABAA α1β3γ2; Table 1) is reported as 36.6 and the LogSel (h-GABAA α1β3γ2; Table 1) is reported as 1.56. The “Efficacy (GABA)%” value (h-GABAA α2β2γ1) was 66% and the “Fold increase h-GABA-A α2β2γ1 oocyte @ 30-fold Ki” value (h-GABAA α2β2γ1) was 1.66.

For `Cc1nnc2n1-c1ccc(C(F)(F)F)c(Cl)c1C(c1ncccc1F)=NC2` [Example 78, 7-chloro-6-(3-fluoro-2-pyridyl)-1-methyl-8-(trifluoromethyl)-4H-[1,2,4]triazolo[4,3-a][1,4]benzodiazepine], the Ki (h-GABAA α1β3γ2) was 4440 nM, the “γ2/γ1 Selectivity Ratio” value (h-GABAA α1β3γ2; Table 1) was 87.4 and the LogSel (h-GABAA α1β3γ2; Table 1) was 1.94. The “Efficacy (GABA)%” value (h-GABAA α2β2γ1) was 103% and the “Fold increase h-GABA-A α2β2γ1 oocyte @ 30-fold Ki” value (h-GABAA α2β2γ1) was 2.03.

With `COc1ccc2c(c1Cl)C(c1c(F)cccc1F)=NCc1nnc(C3CC3)n1-2` [Example 79, 7-chloro-1-cyclopropyl-6-(2,6-difluorophenyl)-8-methoxy-4H-[1,2,4]triazolo[4,3-a][1,4]benzodiazepine] the Ki (h-GABAA α1β3γ2) was 914 nM, the “γ2/γ1 Selectivity Ratio” value (h-GABAA α1β3γ2; Table 1) was 17.8 and the LogSel (h-GABAA α1β3γ2; Table 1) was 1.25. For the same compound, the “Efficacy (GABA)%” value (h-GABAA α2β2γ1) was 79% and the “Fold increase h-GABA-A α2β2γ1 oocyte @ 30-fold Ki” value (h-GABAA α2β2γ1) was 1.79.

`COc1nnc2n1-c1ccc(Cl)c(Cl)c1C(c1c(F)cccc1F)=NC2` [Example 90, 7,8-dichloro-6-(2,6-difluorophenyl)-1-methoxy-4H-[1,2,4]triazolo[4,3-a][1,4]benzodiazepine] was tested, and the Ki (h-GABAA α1β3γ2) was 305 nM, the “γ2/γ1 Selectivity Ratio” value (h-GABAA α1β3γ2; Table 1) was 52.8 and the LogSel (h-GABAA α1β3γ2; Table 1) was 1.72. For the same compound, the “Efficacy (GABA)%” value (h-GABAA α2β2γ1) was 65% and the “Fold increase h-GABA-A α2β2γ1 oocyte @ 30-fold Ki” value (h-GABAA α2β2γ1) was 1.65.

With `CO[C@H]1C[C@H](c2nnc3n2-c2ccc(Cl)c(Cl)c2C(c2c(F)cccc2F)=NC3)C1` [Example 91, trans-7,8-dichloro-6-(2,6-difluorophenyl)-1-(3-methoxycyclobutyl)-4H-[1,2,4]triazolo[4,3-a][1,4]benzodiazepine] the Ki (h-GABAA α1β3γ2) was 1340 nM, the “γ2/γ1 Selectivity Ratio” value (h-GABAA α1β3γ2; Table 1) was 36.8 and the LogSel (h-GABAA α1β3γ2; Table 1) was 1.57. The “Efficacy (GABA)%” value (h-GABAA α2β2γ1) was 58% and the “Fold increase h-GABA-A α2β2γ1 oocyte @ 30-fold Ki” value (h-GABAA α2β2γ1) was 1.58.

With `Fc1cccc(F)c1C1=NCc2nnc(-c3cccnn3)n2-c2ccc(Br)c(Cl)c21` [Example 104, 8-bromo-7-chloro-6-(2,6-difluorophenyl)-1-pyridazin-3-yl-4H-[1,2,4]triazolo[4,3-a][1,4]benzodiazepine] the Ki (h-GABAA α1β3γ2) was 89.3 nM, the “γ2/γ1 Selectivity Ratio” value (h-GABAA α1β3γ2; Table 1) was 38.1 and the LogSel (h-GABAA α1β3γ2; Table 1) was 1.58. For the same compound, the “Efficacy (GABA)%” value (h-GABAA α2β2γ1) was 94% and the “Fold increase h-GABA-A α2β2γ1 oocyte @ 30-fold Ki” value (h-GABAA α2β2γ1) was 1.94.

For `Cc1ncc2n1-c1ccc(Cl)cc1C(c1ccccc1F)=NC2` [Midazolam, reference compound], the Ki (h-GABAA α1β3γ2) was 5 nM, the LogSel (h-GABAA α1β3γ2; Table 3) was −2.2 and the “potentiation of the GABA-induced current” value (h-GABAA α2β2γ1; α2β2γ1 GABAA receptor subtype expressing oocytes, reference PAMs) was roughly 60%.
